The target of assay [1] is human TYK2 (JH2domain-pseudokinase) (Homo sapiens (Human), UniProt P29597). Kind of assay: TYK2 JH2 Domain Binding Assay (KINOMEscan). The procedure, abridged: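 The construct was human TYK2 G556–D888 fused to the NFkB DNA-binding domain and expressed in HEK293 cells; unpurified extract was incubated with compound and liganded beads for 1 hour at room temperature.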
A further assay addresses Tyk2 kinase domain (DH1) (Homo sapiens (Human), UniProt P29597). Kind of assay: Tyk2 Radioactive Kinase Assay. The format is biochemical. To be noted: for inhibition at 10 µM: read-out: Tyk2 JH1% Inhibition @ 10 μM. The procedure, abridged: (§1)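 Values are single-concentration percent inhibition figures. They were obtained with 10 μM compound in a radioactivity-based kinase assay run separately on each enzyme.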

Another assay has as its target JAK2 kinase domain (JH1) (Homo sapiens (Human), UniProt O60674). Kind of assay: JAK2 Radioactive Kinase Assay. The format is biochemical. To be noted: for inhibition at 10 µM: read-out: JAK2 JH1% Inhibition @ 10 μM. The procedure, abridged:
as §1

Assay [2] has as its target Tyk2/JAK2 (heterodimeric complex) (Homo sapiens (Human), UniProt P29597). As to the kind of experiment: IL-12 Induced pSTAT4 in Human PBMC. The format is cell-based. As to conditions: 1.7 ng/mL IL-12. The source says:
The IL-12 Induced pSTAT4 assay evaluates the inhibition of IL-12 induced STAT4 phophorylation mediated by Tyk2/JAK2 (heterodimeric complex).

The target of assay [3] is JAK2/JAK2 homdimeric complex (Homo sapiens (Human), UniProt O60674). Kind of assay: GM-CSF Induced pSTAT5 in Human PBMC. In kind it is cell-based. As to conditions: GM-CSF 5 ng/mL for 20 minutes, pSTAT5 by MSD, read-out: PBMC_GMCSF_pSTAT5 IC50.

The values below come from patent US10508120B2, “TYK2 inhibitors and uses thereof” (Nimbus Lakshmi, Inc., priority 2017, dated 2019).

Read-outs that look alike come from different tables or passages of the source. A value given as a limit tells only on which side of the number the result lay.

human TYK2 (JH2domain-pseudokinase), sequence (P29597 556-888): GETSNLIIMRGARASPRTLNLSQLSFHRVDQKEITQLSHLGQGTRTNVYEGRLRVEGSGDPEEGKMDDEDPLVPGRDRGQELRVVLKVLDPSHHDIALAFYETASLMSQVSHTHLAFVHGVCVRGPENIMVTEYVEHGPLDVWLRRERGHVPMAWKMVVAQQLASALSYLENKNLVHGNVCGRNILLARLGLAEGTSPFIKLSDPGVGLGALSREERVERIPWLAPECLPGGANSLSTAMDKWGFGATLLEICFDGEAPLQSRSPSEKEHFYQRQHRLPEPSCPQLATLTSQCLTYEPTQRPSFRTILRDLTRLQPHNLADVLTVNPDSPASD
JAK2 kinase domain (JH1), sequence (O60674 849-1124): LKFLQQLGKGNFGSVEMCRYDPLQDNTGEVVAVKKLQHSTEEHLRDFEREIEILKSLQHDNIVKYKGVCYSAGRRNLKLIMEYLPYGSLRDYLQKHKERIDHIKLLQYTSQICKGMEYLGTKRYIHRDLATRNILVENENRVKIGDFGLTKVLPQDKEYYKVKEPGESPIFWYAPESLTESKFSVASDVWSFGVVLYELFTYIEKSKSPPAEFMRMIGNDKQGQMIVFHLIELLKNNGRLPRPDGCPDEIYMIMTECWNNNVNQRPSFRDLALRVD
Tyk2/JAK2 (heterodimeric complex), sequence (P29597 whole entry, other chains not shown): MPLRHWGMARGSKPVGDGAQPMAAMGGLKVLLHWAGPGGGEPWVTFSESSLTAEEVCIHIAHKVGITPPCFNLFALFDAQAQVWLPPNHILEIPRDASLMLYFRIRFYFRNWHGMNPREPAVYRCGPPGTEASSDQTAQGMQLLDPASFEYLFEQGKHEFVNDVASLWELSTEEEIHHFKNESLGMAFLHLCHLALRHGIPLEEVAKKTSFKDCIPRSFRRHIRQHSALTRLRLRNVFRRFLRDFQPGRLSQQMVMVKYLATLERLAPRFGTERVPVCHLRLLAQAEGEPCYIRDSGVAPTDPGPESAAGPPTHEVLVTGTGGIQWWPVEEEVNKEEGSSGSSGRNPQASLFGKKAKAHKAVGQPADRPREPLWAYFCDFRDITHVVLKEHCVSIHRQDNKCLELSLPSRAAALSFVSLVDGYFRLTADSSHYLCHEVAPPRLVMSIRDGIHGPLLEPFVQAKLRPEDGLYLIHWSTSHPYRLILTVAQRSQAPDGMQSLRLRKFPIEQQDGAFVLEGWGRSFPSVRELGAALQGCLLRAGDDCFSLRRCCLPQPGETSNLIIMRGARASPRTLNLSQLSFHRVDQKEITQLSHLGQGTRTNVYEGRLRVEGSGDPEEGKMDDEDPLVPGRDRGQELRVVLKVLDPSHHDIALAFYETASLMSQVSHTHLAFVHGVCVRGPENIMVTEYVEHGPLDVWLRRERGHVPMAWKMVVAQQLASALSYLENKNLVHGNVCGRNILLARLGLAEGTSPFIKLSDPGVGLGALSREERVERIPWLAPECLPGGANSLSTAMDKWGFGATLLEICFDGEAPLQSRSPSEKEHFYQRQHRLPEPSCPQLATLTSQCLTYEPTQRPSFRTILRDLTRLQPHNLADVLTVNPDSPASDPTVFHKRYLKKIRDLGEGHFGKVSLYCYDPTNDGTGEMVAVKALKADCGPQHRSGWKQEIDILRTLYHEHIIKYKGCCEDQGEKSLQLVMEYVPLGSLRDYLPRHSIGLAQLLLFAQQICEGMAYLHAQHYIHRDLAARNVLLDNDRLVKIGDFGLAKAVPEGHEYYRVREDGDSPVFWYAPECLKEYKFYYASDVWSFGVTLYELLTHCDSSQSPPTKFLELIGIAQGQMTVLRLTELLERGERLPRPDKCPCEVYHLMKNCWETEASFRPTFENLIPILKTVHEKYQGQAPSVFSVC
Tyk2 kinase domain (DH1), sequence (P29597 897-1176): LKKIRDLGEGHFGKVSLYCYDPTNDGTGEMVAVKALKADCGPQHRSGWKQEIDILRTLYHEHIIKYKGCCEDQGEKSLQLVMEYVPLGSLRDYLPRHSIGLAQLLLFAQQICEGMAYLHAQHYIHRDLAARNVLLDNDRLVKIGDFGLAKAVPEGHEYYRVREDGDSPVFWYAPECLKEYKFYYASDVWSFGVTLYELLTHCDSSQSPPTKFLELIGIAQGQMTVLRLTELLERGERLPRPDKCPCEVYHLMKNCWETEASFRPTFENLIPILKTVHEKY
JAK2/JAK2 homdimeric complex, sequence (O60674 whole entry): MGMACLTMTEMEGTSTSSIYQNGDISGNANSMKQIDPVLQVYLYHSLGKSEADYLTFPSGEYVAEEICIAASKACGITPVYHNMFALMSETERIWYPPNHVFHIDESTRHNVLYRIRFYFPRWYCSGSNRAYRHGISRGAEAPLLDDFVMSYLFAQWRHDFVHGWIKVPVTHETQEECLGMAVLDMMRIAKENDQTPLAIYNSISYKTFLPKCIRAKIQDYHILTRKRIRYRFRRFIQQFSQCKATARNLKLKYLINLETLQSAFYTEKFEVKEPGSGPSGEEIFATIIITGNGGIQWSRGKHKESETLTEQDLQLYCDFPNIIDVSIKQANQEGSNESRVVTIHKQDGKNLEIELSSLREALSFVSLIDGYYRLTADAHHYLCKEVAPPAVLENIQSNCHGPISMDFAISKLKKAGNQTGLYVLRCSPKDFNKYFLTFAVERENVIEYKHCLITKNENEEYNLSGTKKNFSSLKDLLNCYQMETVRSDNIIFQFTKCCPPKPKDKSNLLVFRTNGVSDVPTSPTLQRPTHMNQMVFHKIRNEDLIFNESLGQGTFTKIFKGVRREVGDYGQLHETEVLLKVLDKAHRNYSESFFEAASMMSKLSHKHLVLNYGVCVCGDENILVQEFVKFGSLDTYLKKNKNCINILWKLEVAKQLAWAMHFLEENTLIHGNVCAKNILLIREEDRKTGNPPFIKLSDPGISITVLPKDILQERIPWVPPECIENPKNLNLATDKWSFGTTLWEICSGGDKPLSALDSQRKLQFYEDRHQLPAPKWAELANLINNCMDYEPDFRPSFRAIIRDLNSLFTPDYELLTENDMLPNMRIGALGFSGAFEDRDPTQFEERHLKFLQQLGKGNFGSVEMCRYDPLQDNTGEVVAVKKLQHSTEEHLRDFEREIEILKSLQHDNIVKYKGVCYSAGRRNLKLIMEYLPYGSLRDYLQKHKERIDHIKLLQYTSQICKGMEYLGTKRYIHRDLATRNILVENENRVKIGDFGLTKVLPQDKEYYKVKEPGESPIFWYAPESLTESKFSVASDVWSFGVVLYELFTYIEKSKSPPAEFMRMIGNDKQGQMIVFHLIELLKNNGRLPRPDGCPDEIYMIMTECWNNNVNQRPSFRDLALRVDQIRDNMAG
JAK2/JAK2 homdimeric complex, sequence (P32927 17-897 partner): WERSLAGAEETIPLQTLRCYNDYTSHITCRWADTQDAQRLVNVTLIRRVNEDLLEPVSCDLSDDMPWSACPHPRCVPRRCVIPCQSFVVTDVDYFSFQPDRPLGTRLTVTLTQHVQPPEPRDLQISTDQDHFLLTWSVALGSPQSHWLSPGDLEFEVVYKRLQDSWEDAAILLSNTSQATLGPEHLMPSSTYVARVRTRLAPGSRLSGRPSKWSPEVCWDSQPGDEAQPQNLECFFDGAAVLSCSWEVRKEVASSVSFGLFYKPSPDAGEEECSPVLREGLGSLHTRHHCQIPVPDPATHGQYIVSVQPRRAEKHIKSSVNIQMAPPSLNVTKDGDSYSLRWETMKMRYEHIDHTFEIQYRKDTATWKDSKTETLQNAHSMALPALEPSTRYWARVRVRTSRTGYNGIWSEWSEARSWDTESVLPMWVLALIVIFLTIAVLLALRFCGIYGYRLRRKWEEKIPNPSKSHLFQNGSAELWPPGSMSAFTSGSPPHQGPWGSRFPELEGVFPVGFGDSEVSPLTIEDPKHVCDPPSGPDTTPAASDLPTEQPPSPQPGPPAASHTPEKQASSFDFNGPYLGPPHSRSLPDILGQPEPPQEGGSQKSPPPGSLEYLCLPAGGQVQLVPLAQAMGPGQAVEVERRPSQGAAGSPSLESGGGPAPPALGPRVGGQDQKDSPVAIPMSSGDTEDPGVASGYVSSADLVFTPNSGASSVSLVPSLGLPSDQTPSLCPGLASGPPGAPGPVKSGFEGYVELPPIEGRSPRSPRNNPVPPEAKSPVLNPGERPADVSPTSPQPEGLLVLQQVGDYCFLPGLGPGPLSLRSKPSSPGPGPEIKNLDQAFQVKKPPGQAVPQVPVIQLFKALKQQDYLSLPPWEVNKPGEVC

In assay [1], `CNc1cc(Nc2cccn3ccnc23)nc2c(C(=O)NC3CC3)cnn12` [I-891] showed a Kd below 0.2 nM. For the same compound, the inhibition at 10 µM on Tyk2 kinase domain (DH1) (10 μM compound, 10 μM ATP) was below 50%; on JAK2 kinase domain (JH1) (10 μM compound, 10 μM ATP), below 50%. Besides, the IC50 was below 100 nM in assay [2] and above 50000 nM in assay [3].

For `CNc1cc(Nc2cccnc2OC)nc2c(C(=O)N[C@H]3C[C@@H]3O)cnn12` [I-438, N-((1S,2S)-2-hydroxycyclopropyl)-5-((2-methoxypyridin-3-yl)amino)-7-(methylamino)pyrazolo[1,5-a]pyrimidine-3-carboxamide], the equilibrium dissociation constant (Kd) in assay [1] was below 0.2 nM. Further, the inhibition at 10 µM is below 50% at Tyk2 kinase domain (DH1) (compound at 10 μM, ATP 10 μM) and below 50% at JAK2 kinase domain (JH1) (compound at 10 μM, ATP 10 μM). Also, the IC50 in assay [2] was below 100 nM; in assay [3] it was above 50000 nM.

`CNc1cc(Nc2cc(C)cnc2OCCOC)nc2c(C(=O)NC3CC3)cnn12` [I-281]: the Kd in assay [1] fell in the range of 0.2 to 1 nM. In addition, the inhibition at 10 µM at Tyk2 kinase domain (DH1) (compound at 10 μM, ATP 10 μM) was below 50%; at JAK2 kinase domain (JH1) (compound at 10 μM, ATP 10 μM), below 50%. For the same compound, the figures for the IC50 in assay [2] and in assay [3] were 100 to 500 nM and above 2500 nM, respectively.

As for `CNc1cc(Nc2cccn([C@H]3CC[C@H](OC)CC3)c2=O)nc2c(C(=O)NCC3(CO)CC3)cnn12` [I-545], the Kd in assay [1] was below 0.2 nM. The inhibition at 10 µM at Tyk2 kinase domain (DH1) (compound at 10 μM, ATP 10 μM) is below 50%; on JAK2 kinase domain (JH1) (compound at 10 μM, ATP 10 μM) it was below 50%. The results for the IC50 in assay [2] and in assay [3] were 100 to 500 nM and above 2500 nM, respectively.

Compound `CNc1cc(Nc2cccn(-c3ccccn3)c2=O)nc2c(C(=O)N[C@H]3CC[C@H]3O)cnn12` [I-805] registered a dissociation constant (Kd) in assay [1] below 0.2 nM. For the same compound, the inhibition at 10 µM is below 50% at Tyk2 kinase domain (DH1) (compound at 10 μM, ATP 10 μM) and below 50% on JAK2 kinase domain (JH1) (compound at 10 μM, ATP 10 μM). Moreover, the results for the IC50 in assay [2] and in assay [3] were below 100 nM and above 12500 nM, respectively.

With `CNc1cc(Nc2cccn(-c3cc(C)n(C)n3)c2=O)nc2c(C(=O)NC3CCC3)cnn12` [I-136], in assay [1], the Kd was below 0.2 nM. The inhibition at 10 µM at Tyk2 kinase domain (DH1) (compound at 10 μM, ATP 10 μM) is below 50%; at JAK2 kinase domain (JH1) (compound at 10 μM, ATP 10 μM), below 50%. The results for the IC50 in assay [2] and in assay [3] were below 100 nM and above 2500 nM, respectively.

In turn, `CNc1cc(Nc2cccnc2OC)nc2c(C(=O)N[C@@H]3CCC[C@H]3O)cnn12` [I-423, N-((1R,2R)-2-hydroxycyclopentyl)-5-((2-methoxypyridin-3-yl)amino)-7-(methylamino)pyrazolo[1,5-a]pyrimidine-3-carboxamide] came in with a Kd in assay [1] below 0.2 nM. The inhibition at 10 µM is below 50% on Tyk2 kinase domain (DH1) (compound at 10 μM, ATP 10 μM) and below 50% at JAK2 kinase domain (JH1) (compound at 10 μM, ATP 10 μM). Besides, the figures for the IC50 in assay [2] and in assay [3] were below 100 nM and above 50000 nM, respectively.

Regarding `CNc1cc(Nc2cc(Cl)cn([C@@H]3CCCOC3)c2=O)nc2c(C(=O)NC3CC3)cnn12` [I-783], in assay [1], the Kd is below 0.2 nM. Moreover, the inhibition at 10 µM at Tyk2 kinase domain (DH1) (compound at 10 μM, ATP 10 μM) is below 50%; at JAK2 kinase domain (JH1) (compound at 10 μM, ATP 10 μM), below 50%. In addition, the IC50 in assay [2] was below 100 nM; in assay [3] it was above 50000 nM.

Compound `CNc1cc(Nc2cccn(C3CCCCC3)c2=O)nc2c(C(=O)N[C@@H]3CC[C@H]3O)cnn12` [I-1002] showed an equilibrium dissociation constant (Kd) in assay [1] below 0.2 nM. Also, at Tyk2 kinase domain (DH1) (10 μM compound, 10 μM ATP), the “Tyk2 JH1% Inhibition @ 10 μM” value was “A (percent inhibition at 10 μM lower than 50)”. Besides, the “JAK2 JH1% Inhibition @ 10 μM” value at JAK2 kinase domain (JH1) (10 μM compound, 10 μM ATP) is “A (percent inhibition at 10 μM lower than 50)”. The 50% inhibitory concentration (IC50) in assay [2] is below 100 nM; in assay [3] it was above 50000 nM.

Turning to `CNc1cc(Nc2cccn(C3CCCN(CCF)C3)c2=O)nc2c(C(=O)N[C@@H]3C[C@@H]3F)cnn12` (stereo partly shown) [I-849], the dissociation constant (Kd) in assay [1] is below 0.2 nM. Moreover, the inhibition at 10 µM at Tyk2 kinase domain (DH1) (10 μM compound, 10 μM ATP) is below 50%; on JAK2 kinase domain (JH1) (10 μM compound, 10 μM ATP), below 50%. For the same compound, the IC50 in assay [2] was 100 to 500 nM; in assay [3] it was above 50000 nM.

On to `CNc1cc(Nc2cccc(N3CCCC3=O)n2)nc2c(C(=O)N[C@H]3C[C@H]3F)cnn12` [I-244], for which the Kd in assay [1] is below 0.2 nM. In addition, the inhibition at 10 µM at Tyk2 kinase domain (DH1) (compound at 10 μM, ATP 10 μM) was below 50%; on JAK2 kinase domain (JH1) (compound at 10 μM, ATP 10 μM) it was below 50%. Moreover, the IC50 in assay [2] was below 100 nM; in assay [3], above 12500 nM.

`CNc1cc(Nc2cccnc2OC)nc2c(C(=O)N[C@H]3CC[C@H]3O)cnn12` [I-429]: in assay [1], the Kd was below 0.2 nM. Moreover, the inhibition at 10 µM was below 50% on Tyk2 kinase domain (DH1) (compound at 10 μM, ATP 10 μM) and below 50% at JAK2 kinase domain (JH1) (compound at 10 μM, ATP 10 μM). Moreover, the IC50 is below 100 nM in assay [2] and above 50000 nM in assay [3].

`CNc1cc(Nc2cc(F)cn(-c3ccn(C)n3)c2=O)nc2c(C(=O)NC3CC3)cnn12` [I-378] came in with a Kd in assay [1] below 0.2 nM. The inhibition at 10 µM on Tyk2 kinase domain (DH1) (compound at 10 μM, ATP 10 μM) was below 50%; on JAK2 kinase domain (JH1) (compound at 10 μM, ATP 10 μM) it was below 50%. Moreover, the 50% inhibitory concentration (IC50) is below 100 nM in assay [2] and above 12500 nM in assay [3].

`CNc1cc(Nc2cccn([C@H]3CC[C@@H](N4CCOCC4)CC3)c2=O)nc2c(C(=O)NC3CCC3)cnn12` [I-182] yielded an equilibrium dissociation constant (Kd) in assay [1] below 0.2 nM. Also, the inhibition at 10 µM was below 50% on Tyk2 kinase domain (DH1) (compound at 10 μM, ATP 10 μM) and below 50% on JAK2 kinase domain (JH1) (compound at 10 μM, ATP 10 μM). Further, the IC50 is below 100 nM in assay [2] and above 2500 nM in assay [3].
